Source: patent US9085584B2, “Substituted pyrido[3,2-E][1,2,4]-triazolo[4,3-A]pyrazines for the treatment of central nervous system disorders” (Boehringer Ingelheim International GmbH, priority 2012, dated 2015)

Experiments:
[1] = biological target: PDE10 (Homo sapiens (Human), UniProt Q9Y233); assay: PDE10 assay with fluorescent substrate (IMAP, fluorescence polarization); format: biochemical
Description: (§1) Another, non radioactive, in-vitro assay was performed as follows • c) Phosphodiesterase (PDE) 2A and 10 Assay with Fluorescent Substrate Assay Principle:
(§2) The PDE reaction cleaves cAMP to AMP. The IMAP system (Molecular Device) using fluorescence polarization (FP) as detection principle was used to measure enzyme activity. A fluorescent labeled cAMP was used as substrate for the reaction, generating a labeled AMP. The fluorescent AMP binds specifically to the large M(III)-based nano-particles which reduces the rotational speed of the substrate and thus increases its polarization.
(§3) The inhibition of PDE 2A or 10 enzyme activity was assessed using IMAP-Phosphodiesterase-cAMP fluorescence labeled substrate (Molecular Devices, Order No. R7506), IMAP TR-FRET screening express (Molecular Devices, Order No. R8160, the TR-FRET component will not be used) and PDE 2A or PDE10 protein expressed upon baculovirus infection in SF9 cells.
(§4) All reactions were performed in 384 well plates, Perkin Elmer black optiplates and IMAP reaction buffer with 0.1% Tween20 (kit component)
(§5) Compounds were serial diluted in DMSO. With an intermediate dilution step with reaction buffer DMSO concentration was reduced to achieve 1% DMSO in the assay reaction. Setup of the assay started with 10 μl enzyme (˜10 ng/well, depending on prep. batch), 5 μl compound, reaction was started by addition of 5 μl labeled cAMP (30 nM, final concentration), immediately mixed for 15 seconds on a Eppendorf mixmate (2000 rpm) followed by an incubation at room temperature for 90 minutes in the dark. Reaction is stopped by adding of 60 μl binding buffer for FP/cAMP (kit component).
(§6) Each assay plate contained wells with vehicle controls (1% DMSO) for the measurement of non-inhibited reaction (=100% control) and wells without enzyme as 0% controls.

[2] = Metabolic stability in pooled liver microsomes; format: in vitro ADME, human; conditions: 1 μM test compound, 37° C.; for Half-life - t½: human liver microsomes
Description: The metabolic stability of the compounds according to the invention has been investigated as follows:
The metabolic degradation of the test compound was assayed at 37° C. with pooled liver microsomes from various species. The final incubation volume of 100 μl per time point contains TRIS buffer pH 7.6 at room temperature (0.1 M), magnesium chloride (5 mM), microsomal protein (1 mg/mL for human and dog, 0.5 mg/mL for other species) and the test compound at a final concentration of 1 μM. Following a short preincubation period at 37° C., the reactions were initiated by addition of betanicotinamide adenine dinucleotide phosphate, reduced form (NADPH, 1 mM), and terminated by transferring an aliquot into solvent after different time points. […] The half-life was determined by the slope of the semi-logarithmic plot of the concentration-time profile.

[3] = biological target: PDE 2A (Homo sapiens (Human), UniProt O00408); assay: PDE 2A assay with fluorescent substrate (IMAP, fluorescence polarization); format: biochemical; conditions: read-out: PDE2 IC50
PDE 2A, sequence (O00408 whole entry, species assumed): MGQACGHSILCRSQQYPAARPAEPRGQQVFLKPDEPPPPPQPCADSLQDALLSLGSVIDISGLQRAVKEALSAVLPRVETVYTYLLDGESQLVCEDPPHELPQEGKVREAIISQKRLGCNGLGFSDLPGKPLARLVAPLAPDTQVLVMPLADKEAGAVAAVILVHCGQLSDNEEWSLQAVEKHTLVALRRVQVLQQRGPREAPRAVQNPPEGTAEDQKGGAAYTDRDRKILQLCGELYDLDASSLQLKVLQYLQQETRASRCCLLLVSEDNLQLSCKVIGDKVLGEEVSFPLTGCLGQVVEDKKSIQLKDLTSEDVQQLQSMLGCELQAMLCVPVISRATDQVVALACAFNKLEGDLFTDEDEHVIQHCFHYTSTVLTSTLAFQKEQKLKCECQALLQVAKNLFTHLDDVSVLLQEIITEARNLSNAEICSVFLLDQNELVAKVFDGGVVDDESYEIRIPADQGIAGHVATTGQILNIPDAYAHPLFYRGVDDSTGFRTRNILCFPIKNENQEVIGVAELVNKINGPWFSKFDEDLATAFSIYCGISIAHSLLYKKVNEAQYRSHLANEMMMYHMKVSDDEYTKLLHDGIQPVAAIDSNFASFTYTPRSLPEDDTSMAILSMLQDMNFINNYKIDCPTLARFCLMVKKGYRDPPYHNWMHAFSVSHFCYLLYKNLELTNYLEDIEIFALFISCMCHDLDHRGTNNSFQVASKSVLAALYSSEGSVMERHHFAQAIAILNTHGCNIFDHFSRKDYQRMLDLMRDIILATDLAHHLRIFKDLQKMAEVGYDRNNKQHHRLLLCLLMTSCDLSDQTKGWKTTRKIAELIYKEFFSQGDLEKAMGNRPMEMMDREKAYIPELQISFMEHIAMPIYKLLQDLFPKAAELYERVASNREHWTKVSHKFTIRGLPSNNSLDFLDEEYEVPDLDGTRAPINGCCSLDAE
Description: as §1, §2, §3, §4, §5, §6

[4] = biological target: PDE 10A (Homo sapiens (Human), UniProt Q9Y233); assay: Radioactive PDE10 assay ([3H]cAMP SPA); format: biochemical
PDE 10A, sequence (Q9Y233 whole entry, species assumed): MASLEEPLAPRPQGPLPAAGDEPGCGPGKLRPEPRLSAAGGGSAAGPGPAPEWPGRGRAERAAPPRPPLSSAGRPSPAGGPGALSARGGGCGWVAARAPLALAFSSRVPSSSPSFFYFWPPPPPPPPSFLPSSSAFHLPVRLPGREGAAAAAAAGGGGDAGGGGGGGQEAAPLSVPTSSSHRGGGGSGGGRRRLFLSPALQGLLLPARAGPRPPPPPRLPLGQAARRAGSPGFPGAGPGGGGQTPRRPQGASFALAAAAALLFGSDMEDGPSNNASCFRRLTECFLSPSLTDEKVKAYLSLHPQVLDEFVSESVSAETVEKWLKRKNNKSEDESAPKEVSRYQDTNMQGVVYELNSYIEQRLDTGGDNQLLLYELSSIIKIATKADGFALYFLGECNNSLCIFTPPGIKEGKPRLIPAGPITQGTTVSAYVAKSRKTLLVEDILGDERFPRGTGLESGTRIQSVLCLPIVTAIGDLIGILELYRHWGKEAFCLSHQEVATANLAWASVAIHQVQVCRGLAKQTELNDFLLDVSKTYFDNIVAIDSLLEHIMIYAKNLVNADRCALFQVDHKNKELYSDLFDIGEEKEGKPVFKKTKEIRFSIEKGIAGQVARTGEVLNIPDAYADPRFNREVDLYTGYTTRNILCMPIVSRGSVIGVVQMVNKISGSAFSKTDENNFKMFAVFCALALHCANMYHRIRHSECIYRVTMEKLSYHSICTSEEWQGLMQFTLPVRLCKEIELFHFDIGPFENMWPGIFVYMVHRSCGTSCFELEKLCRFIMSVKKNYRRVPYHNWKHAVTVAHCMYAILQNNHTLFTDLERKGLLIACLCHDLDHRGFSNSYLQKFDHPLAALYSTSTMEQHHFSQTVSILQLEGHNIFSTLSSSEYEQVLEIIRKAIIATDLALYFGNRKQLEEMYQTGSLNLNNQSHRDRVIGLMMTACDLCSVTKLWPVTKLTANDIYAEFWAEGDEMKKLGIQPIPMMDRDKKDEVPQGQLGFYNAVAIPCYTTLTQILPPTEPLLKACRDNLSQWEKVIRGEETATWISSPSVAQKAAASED
Description: Into a 384 well plate (OptiPlate, white), the following components are pipetted (either manually or using automated pipetting devices): • 20 μl test-compound solution (test compound diluted in assay buffer at twofold the desired concentration) • +10 μl PDE 10A preparation (enzyme diluted in assay buffer to a concentration of 0.3 ng/μl protein) • +10 μl cAMP tracer (diluted in assay buffer to a concentration of 80 nM cAMP, specific activity ˜4 mCi/I)
After addition of all 3 components the plates are shortly spun and incubated at room temperature for 60 min. The reaction is stopped by the addition of 20 μl Yttrium SPA PDE Beads containing 18 mM zinc sulphate in water
PDE 10A protein is expressed upon baculovirus infection in SF9 cells. The cells have been incubated upon infection for ˜3 days and protein production was confirmed by Western Blot. The cells were collected by centrifugation and the pellet frozen in liquid nitrogen before it was resuspended in PBS containing 1% Triton X-100 and protease inhibitors. After 45 min incubation on ice, the cell debris was removed by centrifugation (13.000 rpm, 30 min).

[5] = biological target: hERG channel (Homo sapiens (Human), UniProt Q12809); assay: hERG-channel assay (whole-cell patch clamp, transfected HEK293 cells); format: cell-based; conditions: HEK293 cells stably transfected with hERG cDNA, 35° C.
hERG channel, sequence (Q12809 whole entry): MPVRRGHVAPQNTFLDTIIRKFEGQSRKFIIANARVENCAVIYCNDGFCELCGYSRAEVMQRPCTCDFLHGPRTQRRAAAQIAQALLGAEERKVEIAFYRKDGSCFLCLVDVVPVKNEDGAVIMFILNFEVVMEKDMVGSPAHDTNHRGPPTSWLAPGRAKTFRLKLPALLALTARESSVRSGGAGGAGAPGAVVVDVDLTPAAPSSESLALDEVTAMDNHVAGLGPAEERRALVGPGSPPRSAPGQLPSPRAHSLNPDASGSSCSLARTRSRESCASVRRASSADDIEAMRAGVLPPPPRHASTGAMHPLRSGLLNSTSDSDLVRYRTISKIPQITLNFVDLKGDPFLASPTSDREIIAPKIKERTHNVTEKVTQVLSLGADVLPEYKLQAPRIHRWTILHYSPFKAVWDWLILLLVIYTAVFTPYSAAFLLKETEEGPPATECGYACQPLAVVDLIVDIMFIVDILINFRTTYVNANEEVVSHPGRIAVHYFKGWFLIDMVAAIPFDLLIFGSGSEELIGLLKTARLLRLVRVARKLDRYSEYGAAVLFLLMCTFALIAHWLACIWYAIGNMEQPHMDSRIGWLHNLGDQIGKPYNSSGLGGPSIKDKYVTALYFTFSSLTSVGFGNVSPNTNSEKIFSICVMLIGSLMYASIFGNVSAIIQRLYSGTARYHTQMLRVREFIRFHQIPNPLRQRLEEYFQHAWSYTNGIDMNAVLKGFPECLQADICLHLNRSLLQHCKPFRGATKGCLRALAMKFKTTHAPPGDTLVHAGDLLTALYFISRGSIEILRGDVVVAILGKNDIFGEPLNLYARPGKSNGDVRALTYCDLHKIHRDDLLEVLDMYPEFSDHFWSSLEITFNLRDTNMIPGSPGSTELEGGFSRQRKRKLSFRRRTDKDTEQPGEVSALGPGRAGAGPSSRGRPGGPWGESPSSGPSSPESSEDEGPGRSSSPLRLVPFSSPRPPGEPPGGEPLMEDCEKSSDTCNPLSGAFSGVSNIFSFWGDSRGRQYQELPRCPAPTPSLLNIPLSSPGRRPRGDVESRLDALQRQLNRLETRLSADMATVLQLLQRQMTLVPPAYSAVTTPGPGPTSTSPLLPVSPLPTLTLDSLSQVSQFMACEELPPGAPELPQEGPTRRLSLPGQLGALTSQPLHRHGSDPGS
Text: hERG (Human Ether-à-go-go-Related Gene)-Channel Assay
hERG channel inhibition of compounds of the present invention has been investigated as follows:
HEK (human embryonic kidney) 293 cells were stably transfected with hERG cDNA.
Cells were superfused with a bath solution containing (mM): NaCl (137), KCl (4.0), MgCl2 (1.0), CaCl2 (1.8), Glucose (10), HEPES (10), pH 7.4 with NaOH. Patch pipettes were made from borosilicate glass tubing using a horizontal puller and filled with pipette solution containing (mM): K-aspartate (130), MgCl2 (5.0), EGTA (5.0), K2ATP (4.0), HEPES (10.0), pH 7.2 with KOH. Resistance of the microelectrodes was in the range between 2 and 5 MΩ.
Stimulation and recording:
Membrane currents were recorded using an EPC-10 patch clamp amplifier and PatchMaster software. hERG-mediated membrane currents were recorded at 35° C., using the whole-cell configuration of the patch-clamp technique. […] During each inter-pulse interval 4 pulses scaled down by a factor of 0.2 were recorded for a P/n leak subtraction procedure. […]
The different concentrations of the test compound were applied sequentially on each of the different cells investigated. A steady state level of baseline current was measured for at least 6 sweeps prior to the application of the first test compound concentration. […]
Peak current amplitudes were measured 3 ms after the ramp to +40 mV. […]

[6] = Animal experiments and sample analysis: plasma, brain and CSF concentration; format: in vivo; conditions: rat, 2 h between administration and CSF sampling
Description: In-vivo Effect: Animal Experiments and Sample Analysis (CSF):
Test compounds were administered to animals (rat) different routes at doses of 10.0 or 5 μmol/kg, (both oral and intravenous). After compound administration, the animals were sacrificed in a CO2 chamber and CSF samples were carefully collected by puncture of the cisterna magna. Immediately after CSF sampling, blood was taken by heart puncture and brains were dissected out. Blood was collected in EDTA-coated microvettes and plasma was prepared by centrifugation. Concentration of the test compounds in plasma, CSF or brain homogenate was determined using HPLC-MS-MS.

PDE10, sequence (Q9Y233 whole entry, species assumed): as the sequence (Q9Y233 whole entry, species assumed) above

SMILES | IC50 [1] | IC50 [3] | further results
Cc1nc2cccnc2n2c(-c3cc(OC4COCC4O)ccc3Cl)nnc12 (racemic) [Example 55] | 5300 nM | 80 nM | Half-life - t½ [2]: 2.17 h
Cc1nc2ccc(C3CC3)nc2n2c(-c3cc(C4(O)CCOC4)ccc3Cl)nnc12 (racemic) [Example 97] | 2140 nM | – | half-life at 1 μM ([2]; human, pooled liver microsomes, pH 7.6, human liver microsomes, read-out: Half-life - t½): 0.85 h
Cc1nc2ccc(C(F)(F)F)nc2n2c(-c3cc(OC4COCC4O)ccc3F)nnc12 (racemic) [Example 106] | 1940 nM | 160 nM | –
Cc1nc2ccc(C(F)(F)F)nc2n2c(-c3cc(C4(O)CCOC4)ccc3Cl)nnc12 (single isomer, unassigned) [Example 115a] | – | 82 nM | –
Cc1nc2cccnc2n2c(-c3cc(OCCO)ccc3Cl)nnc12 [Example 15] | – | – | IC50 [4]: > 10000 nM
Cc1nc2ccc(C3CC3)nc2n2c(-c3cc(OC[C@H](C)O)ccc3Cl)nnc12 [Example 35a] | – | – | Half-life - t½ [2]: 2.17 h; IC50 [5]: > 10000 nM
Cc1ccc(C2(O)CCC2)cc1-c1nnc2c(C)nc3cccnc3n12 [Example 73] | 10000 nM | – | Half-life - t½ [2]: 2.17 h
Cc1ccc(C(C)(C)O)cc1-c1nnc2c(C)nc3ccc(C4CC4)nc3n12 [Example 75] | – | – | conc CSF [6]: 31 nM; conc brain [6]: 383 nM; conc plasma [6]: 1130 nM; Half-life - t½ [2]: 2.17 h
Cc1ccc(C2(O)CCOCC2)cc1-c1nnc2c(C)nc3ccc(C(F)(F)F)nc3n12 [Example 96b] | 10000 nM | – | –
Cc1nc2ccc(C(F)(F)F)nc2n2c(-c3cc(C(C)(C)O)ccc3Cl)nnc12 [Example 103b] | 10000 nM | – | –

Further lines, with some results ahead:

IC50 [1] | IC50 [3] | SMILES | further results
22 nM | 7 nM | Cc1nc2ccc(C3CC3)nc2n2c(-c3cc(OC4COCC4O)ccc3F)nnc12 (racemic) [Example 107] | –
3980 nM | 22 nM | Cc1nc2ccc(C(F)(F)F)nc2n2c(-c3cc(OC4COCC4O)ccc3Cl)nnc12 (racemic) [Example 111] | –
7000 nM | 18 nM | Cc1nc2cccnc2n2c(-c3cc(C4(O)CCCOC4)ccc3Cl)nnc12 (racemic) [Example 112] | –
– | 22 nM | Cc1nc2ccc(C(F)(F)F)nc2n2c(-c3cc(C4(O)CCCOC4)ccc3Cl)nnc12 (racemic) [Example 114] | –
– | 39 nM | Cc1nc2ccc(C(F)(F)F)nc2n2c(-c3cc(C4(O)CCOC4)ccc3Cl)nnc12 (racemic) [Example 115] | –
1830 nM | 65 nM | Cc1nc2ccc(C(F)(F)F)nc2n2c(-c3cc(OC4COCC4O)ccc3Cl)nnc12 (single isomer, unassigned) [Example 111a] | –
2130 nM | 11 nM | Cc1nc2ccc(C(F)(F)F)nc2n2c(-c3cc(OC4COCC4O)ccc3Cl)nnc12 (single isomer, unassigned) [Example 111b] | –
2600 nM | 25 nM | Cc1nc2cccnc2n2c(-c3cc(C4(O)CCCOC4)ccc3Cl)nnc12 (single isomer, unassigned) [Example 112a] | –
2500 nM | 68 nM | Cc1nc2cccnc2n2c(-c3cc(C4(O)CCCOC4)ccc3Cl)nnc12 (single isomer, unassigned) [Example 112b] | –
– | 9 nM | Cc1nc2ccc(C(F)(F)F)nc2n2c(-c3cc(C4(O)CCCOC4)ccc3Cl)nnc12 (single isomer, unassigned) [Example 114a] | –
10000 nM | 11 nM | Cc1nc2ccc(C(F)(F)F)nc2n2c(-c3cc(C4(O)CCCOC4)ccc3Cl)nnc12 (single isomer, unassigned) [Example 114b] | –
10000 nM | 45 nM | Cc1nc2ccc(C(F)(F)F)nc2n2c(-c3cc(C4(O)CCOC4)ccc3Cl)nnc12 (single isomer, unassigned) [Example 115b] | –
– | 19 nM | Cc1ccc2nc(C)c3nnc(-c4cc(CO)ccc4Cl)n3c2n1 [Example 60] | –
3190 nM | 0.2 nM | Cc1nc2ccc(C3CC3)nc2n2c(-c3cc(C4(O)CCCOC4)ccc3Cl)nnc12 (stereo not shown) [Example 113] | –
